Tests used:
Experiment in all cases: relative viability (nuclei count vs DMSO), 5 days (fraction); higher = more cells survive
Tivozanib = compound: COc1cc2nccc(Oc3ccc(NC(=O)Nc4cc(C)on4)c(Cl)c3)c2cc1OC [Tivozanib]
Procedure, shortened: (§1)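 Nuclei counted with MetaXpress define viability as the ratio of treated to vehicle wells, given as a median across plates. The lung cancer cell lines were in 1536-well plates, pinned with five √10-spaced library-drug doses and imaged at 4× after 5 days and Hoechst staining. Plates passed with control CV below 25% and at least one doubling.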

CPI-613 = compound: O=C(O)CCCCC(CCSCc1ccccc1)SCc1ccccc1 [CPI-613]
Procedure, shortened: as §1

Pimozide = compound: O=c1[nH]c2ccccc2n1C1CCN(CCCC(c2ccc(F)cc2)c2ccc(F)cc2)CC1 [Pimozide]
Procedure, shortened: as §1

Docetaxel = compound: CC(=O)O[C@@]12CO[C@@H]1C[C@H](O)[C@@]1(C)C(=O)[C@H](O)C3=C(C)[C@@H](OC(=O)[C@H](O)[C@@H](NC(=O)OC(C)(C)C)c4ccccc4)C[C@@](O)([C@@H](OC(=O)c4ccccc4)[C@H]21)C3(C)C [Docetaxel]
Procedure, shortened: as §1

JQ1 = compound: Cc1sc2c(c1C)C(c1ccc(Cl)cc1)=N[C@@H](CC(=O)OC(C)(C)C)c1nnc(C)n1-2 [JQ1]
Procedure, shortened: as §1

Cytarabine = compound: Nc1ccn([C@@H]2O[C@H](CO)[C@@H](O)[C@@H]2O)c(=O)n1 [Cytarabine]
Procedure, shortened: as §1

[1] = compound: Cc1cnc(-c2cnc(NCCNc3ccc(C#N)cn3)nc2-c2ccc(Cl)cc2Cl)[nH]1
Procedure, shortened: as §1

Cell Line | relative viability (Tivozanib; 0.005 µM) | relative viability (Tivozanib; 0.01581 µM) | relative viability (Tivozanib; 0.05 µM) | relative viability (Tivozanib; 0.1581 µM) | relative viability (Tivozanib; 0.5 µM) | relative viability (CPI-613; 5 µM) | relative viability (CPI-613; 15.81 µM) | relative viability (CPI-613; 50 µM) | relative viability (CPI-613; 158.11 µM) | relative viability (CPI-613; 500 µM) | relative viability (Pimozide; 0.253 µM) | relative viability (Pimozide; 0.8 µM) | relative viability (Pimozide; 2.53 µM) | relative viability (Pimozide; 8 µM) | relative viability (Docetaxel; 0.0002 µM) | relative viability (Docetaxel; 0.000632 µM) | relative viability (Docetaxel; 0.002 µM) | relative viability (Docetaxel; 0.006325 µM) | relative viability (Docetaxel; 0.02 µM) | relative viability (JQ1; 0.04 µM) | relative viability (JQ1; 0.1265 µM) | relative viability (JQ1; 0.4 µM) | relative viability (JQ1; 1.265 µM) | relative viability (JQ1; 4 µM) | relative viability (Cytarabine; 0.005 µM) | relative viability (Cytarabine; 0.01581 µM) | relative viability (Cytarabine; 0.05 µM) | relative viability (Cytarabine; 0.1581 µM) | relative viability (Cytarabine; 0.5 µM) | relative viability ([1]; 0.08 µM) | relative viability ([1]; 0.253 µM) | relative viability ([1]; 0.8 µM) | relative viability ([1]; 2.53 µM) | relative viability (Pimozide; 0.08 µM)
PC-3 [JPC-3] | 1.03 | 1.05 | 1.06 | 1.05 | 0.912 | 1.01 | 0.952 | 1.01 | 0.789 | 0.358 | 0.984 | 0.945 | 1.01 | 0.894 | 0.98 | 1.01 | 0.585 | 0.344 | 0.188 | 0.999 | 0.997 | 0.762 | 0.675 | 0.606 | 0.945 | 0.971 | 0.773 | 0.618 | 0.631 | 1 | 0.909 | 1.04 | 1.03 | 
PC-14 | 0.924 | 1.05 | 1.06 | 1.03 | 0.927 | 0.956 | 0.9 | 0.941 | 0.685 | 0.595 | 0.965 | 0.851 | 0.915 | 0.987 | 0.941 | 0.742 | 0.209 | 0.081 | 0.0432 | 0.971 | 0.684 | 0.652 | 0.333 | 0.22 | 0.881 | 0.922 | 0.565 | 0.174 | 0.127 | 1.07 | 0.861 | 1.04 | 0.867 | 
RERF-LC-KJ | 0.951 | 0.939 | 1.06 | 0.935 | 0.969 | 0.978 | 0.883 | 1.02 | 0.891 | 0.865 | 0.887 | 0.867 | 0.869 | 0.792 | 0.94 | 0.79 | 0.335 | 0.218 | 0.173 | 0.985 | 1.01 | 0.967 | 0.624 | 0.423 | 0.869 | 0.907 | 0.77 | 0.567 | 0.435 | 1.1 | 0.906 | 0.89 | 1 | 0.959
SK-LU-1 | 1 | 1.02 | 1.12 | 0.928 | 1.05 | 1.04 | 0.911 | 0.995 | 0.668 | 0.473 | 1.03 | 0.986 | 0.876 | 0.858 | 0.843 | 0.64 | 0.425 | 0.329 | 0.255 | 1 | 0.91 | 0.91 | 0.377 | 0.238 | 0.853 | 0.868 | 0.776 | 0.433 | 0.322 | 1.12 | 0.967 | 1.06 | 1.14 | 1.02
SK-MES-1 | 0.997 | 0.993 | 1.02 | 1 | 0.959 | 0.967 | 0.904 | 0.98 | 0.531 | 0.477 | 0.998 | 0.979 | 1.01 | 0.985 | 1 | 0.872 | 0.418 | 0.267 | 0.172 | 0.937 | 0.717 | 0.603 | 0.311 | 0.25 | 0.875 | 0.712 | 0.355 | 0.258 | 0.221 | 1.09 | 0.947 | 1.02 | 1.1 | 0.942
SW 900 | 0.894 | 0.855 | 0.844 | 0.4 | 0.791 | 0.837 | 0.642 | 1.02 | 0.601 | 0.0301 | 0.84 | 0.468 | 0.811 | 0.742 | 0.69 | 0.422 | 0.292 | 0.232 | 0.174 | 0.87 | 0.766 | 0.557 | 0.26 | 0.209 | 0.725 | 0.674 | 0.564 | 0.26 | 0.204 | 0.902 | 0.803 | 0.759 | 0.729 | 0.916
SW 1573 | 0.969 | 0.914 | 1.01 | 0.903 | 0.829 | 0.917 | 0.851 | 0.958 | 0.482 | 0.314 | 1.02 | 0.945 | 0.82 | 0.637 | 0.872 | 0.485 | 0.252 | 0.205 | 0.152 | 0.869 | 0.791 | 0.637 | 0.365 | 0.345 | 0.969 | 0.87 | 0.725 | 0.38 | 0.157 | 1.1 | 0.999 | 0.997 | 0.6 | 0.923
UMC-11 | 0.944 | 0.954 | 0.965 |  | 0.927 | 0.945 | 0.924 | 0.911 | 0.474 | 0.133 | 0.983 | 0.961 | 0.976 | 1.07 | 0.912 | 0.944 | 0.456 | 0.279 | 0.187 | 0.926 | 0.742 | 0.43 | 0.29 | 0.26 | 0.75 | 0.554 | 0.551 | 0.316 | 0.264 | 0.943 | 0.787 | 0.929 | 1.02 | 1.01

— the supplement of paper PMC10307832
